Data set [1] addresses T1, uric acid transporter URAT1 (Homo sapiens, UniProt Q96S37).
T1 construct: expressed in transfected cells; host or cells: HEK293A, stably overexpressing URAT1; the empty vector control is HEK293A-pcDNA3.1
T1 sequence (Q96S37 1-553): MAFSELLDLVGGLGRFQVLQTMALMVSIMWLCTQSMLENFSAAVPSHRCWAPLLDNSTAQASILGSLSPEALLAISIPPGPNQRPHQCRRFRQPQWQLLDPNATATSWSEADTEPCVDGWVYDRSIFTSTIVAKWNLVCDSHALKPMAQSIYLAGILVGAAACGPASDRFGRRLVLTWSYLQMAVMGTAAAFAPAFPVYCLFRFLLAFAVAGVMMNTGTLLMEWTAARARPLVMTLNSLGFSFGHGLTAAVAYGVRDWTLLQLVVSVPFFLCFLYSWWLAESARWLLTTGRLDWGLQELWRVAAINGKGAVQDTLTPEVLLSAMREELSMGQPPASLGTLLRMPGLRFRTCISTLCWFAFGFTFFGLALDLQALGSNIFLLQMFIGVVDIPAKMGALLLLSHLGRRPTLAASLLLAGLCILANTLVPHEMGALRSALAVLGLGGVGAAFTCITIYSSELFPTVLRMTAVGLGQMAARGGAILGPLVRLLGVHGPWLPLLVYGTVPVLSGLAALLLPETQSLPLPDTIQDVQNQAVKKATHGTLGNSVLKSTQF
Put plainly: Uptake cell inhibition experiment: URAT1-mediated 14C-uric acid uptake in HEK293A-URAT1 cells. It counts as cell-based.
Description: 1) DMSO was used as the solvent of a 200-fold working solution, the storing solution was diluted to a 200-fold working solution at each administration concentration.
2) Hanks balanced salt solution (without Cl^−) was used as the solvent for the 2-fold working solution of transport protein URAT1, and then 200-fold working solution in 1) was diluted by 100 times to obtain a 2-fold working solution at each administration concentration. […]
First, the culture medium in the culture plate was removed, and it was washed once with Hanks buffer salt solution (without Cl^−). […] The cell lysate was taken into a scintillation vial, and 3 mL of Aquasol-2 scintillation liquid was added, and the radioactive intensity in the sample was measured by using Tri-Carb 2910TR liquid scintillation instrument. […]
Three repeats (i.e. n=3) were set for each administration concentration. Mean±standard error (SD) was calculated using statistical formulas in Microsoft® Excel 2010 software.
According to the inhibitory rate (IR) for each transporter at each administration concentration, IC50 value, the effect of the compound on the transport activity of the drug transporter was calculated through Prism5.0 in combination with the Forecast function in Microsoft® Excel 2010 software.

The nature of data set [2]: Plasma pharmacokinetics in male and female SD rats after single intravenous and intragastric administration. It counts as in vivo. As to conditions: rat; for clearance: read-out: plasma clearance rate; for Vd: read-out: steady state apparent volume of distribution (Vdss); for bioavailability: PO 4.0 mg/kg vs IV 2.0 mg/kg; for Cmax: read-out: peak concentration (Cmax); for Tmax: read-out: peak time Tmax. The text has this:
Experimental purpose: Plasma pharmacokinetics of male and female SD rats after single intravenous injection and intragastric administration as well as repeated intragastric administration for 8 days for the compound of formula (I).
1. In this experiment, 12 SD rats, half males and half females, were provided by Beijing Vital River Laboratory Animal Technologies Co., Ltd., and were divided into 2 groups according to the similarity of their body weights, each group had 3 females and 3 males. The details of the administration protocol and blood collection protocol were shown in Table 5 and Table 6, respectively.
All animals fasted every other night before the first day of administration and resumed to be fed 4 hours after the administration.
Note: DMSO means dimethyl sulfoxide; HP-β-CD means hydroxypropyl-β-cyclodextrin; MC means methyl cellulose;
IV means intravenous administration; PO means intragastric administration.
Sample Collection and Analysis Methods
0.15 mL of blood samples from experimental animals were collected by jugular vein puncture, and immediately transferred to labeled centrifuge tubes containing K2-EDTA (0.5 M), and the plasma was separated by centrifugation within 30 minutes (centrifugation condition: 3000 g, 4° C., 15 minutes). Plasma concentrations were measured using a validated LC/MS/MS analysis method; plasma concentrations were processed using a non-compartment model of WinNonlin™ Version 6.3 (Pharsight, Mountain View, Calif.) pharmacokinetics software, and the pharmacokinetic parameters were calculated using the linear logarithmic trapezoid method.

Data set [3] can be described thus: Solubility test of crystal form A in 9 vehicles (HPLC). It counts as physicochemical. Particulars: for Solubility (4 hrs) / Solubility (24 hrs) / solubility at 4 h / solubility at 24 h: 37° C.; for Solubility (4 hrs) / solubility at 4 h: stirring 4 hrs; for Solubility (24 hrs) / solubility at 24 h: stirring 24 hrs; for solubility at 4 h / solubility at 24 h: thermodynamic from solid. How it is done: 1. Preparation of diluent and mobile phase
Diluent: 300 mL of pure water and 100 mL of pure acetonitrile were accurately measured, and mixed in a 1 L glass bottle, ultrasonically degassed for 10 minutes for use.
Mobile phase A: 0.1% phosphoric acid aqueous solution
For example: 2.0 mL of phosphoric acid was added into 2000 mL of water, and the mixture was ultrasounded for 10 minutes, mixed evenly, and naturally cooled to room temperature, as mobile phase A.
Mobile phase B: acetonitrile.
2. Preparation of the control solution (using crystal form A per se as the control sample)
5 mg of crystal form A was accurately weighed and placed in a sample bottle, and 10 mL of diluent was added, and the mixture was ultrasounded for 5 minutes, naturally cooled to room temperature, mixed evenly, and labeled as working control solution STD-1.
5 mg of crystal form A was accurately weighed and placed in a sample bottle, and 10 mL of diluent was added, and the mixture was ultrasounded for 5 minutes, naturally cooled to room temperature, mixed evenly, and labeled as working control solution STD-2.
3. Preparation of linear solution
The aforementioned working control solution STD-1 was successively diluted by 1 time, 10 times, 100 times, 1000 times and 2000 times, and was labeled as linear solutions L1, L2, L3, L4 and L5.
6 mg of crystal form A was accurately weighed respectively and added into 8 mL glass bottle, and then 3 mL of different solvents (0.1N hydrochloric acid solution, 0.01N hydrochloric acid solution, purified water, pH 3.8 buffer solution, pH 4.5 buffer solution, pH 5.5 buffer solution, pH 6.0 buffer solution, pH 7.4 buffer solution, pH 6.8 buffer solution) were accurately added to prepare the suspensions. A stirrer was added to the above suspensions, and the suspensions were fully stirred at 37° C. in dark. After stirring, the solids in the pH 7.4 buffer solution and the pH 6.8 buffer solution were completely dissolved, 6 mg of crystal form A were accurately weighed respectively, and added to the buffer solutions, and stirred fully again to prepare suspensions. After stirring for 4 hours and 24 hours, samples were taken and centrifuged. The solutions were filtered with a filter membrane and their concentrations were measured by HPLC.

The mark [4] stands for this setting: female SD rats, IV single, 2.0 mg/kg.
Setting [5] is: female SD rats, single intragastric (PO) 4.0 mg/kg.
The mark [6] stands for this setting: male SD rats, IV single, 2.0 mg/kg.
The mark [7] stands for this setting: male SD rats, single intragastric (PO) 4.0 mg/kg.
Setting [8] is: aqueous buffer, pH 4.5 buffer solution.
[9] abbreviates: aqueous buffer, pH 5.5 buffer solution.
The mark [10] stands for this setting: aqueous buffer, pH 6.0 buffer solution.
[11] abbreviates: aqueous buffer, pH 6.8 buffer solution.
Where [12] appears, read: aqueous buffer, pH 7.4 buffer solution.

Converted amounts (≈) assume the structure as drawn. Where two headings read alike, the source gives them in different places. A value given as a limit tells only on which side of the number the result lay.

Here are results for two molecules from patent publication US10995087B2, “Crystal form of URAT1 inhibitor, and preparation method therefor” (MEDSHINE DISCOVERY INC., priority 2017, dated 2021).

What is called IC50 is the point on the concentration scale where inhibition reaches its midpoint. The term AUC(0-inf) denotes the area under the concentration-time curve extrapolated to infinity. Higher therefore signals more exposure. What is called clearance is the volume of plasma or blood freed of the substance per unit of time. A word on the bioavailability: it is the share of a dose that reaches the circulation, judged against a reference dose that is usually intravenous. Lower therefore signals little systemic uptake. As a reminder, the Tmax is the time from dosing to the highest level. One may read the solubility as the dissolved amount per volume that the medium holds. High values mean a readily soluble substance, low ones a poorly soluble substance.

As for `CC(C)(Sc1nnc(Br)n1-c1sc(C2CC2)c2c1CCC(F)(F)C2)C(=O)O` [compound of formula (I)], the half-inhibitory concentration (IC50) in data set [1] (HEK293A-URAT1 cells, 2 min administration, n=3, read-out: IC50, inhibition of uptake of 14C-UA mediated by URAT1) was 34 nM. Moreover, the “Inhibitory effect on URAT1 relative to reference compound lesinurad” value in data set [1] (ratio of IC50 values) is on record as “about 177 times”. The AUC(0-inf) in data set [2] (setting [4]) is 5240 ± 544 ng·h/mL; in data set [2] (setting [5]) it was 9010 ± 4670 ng·h/mL; in data set [2] (setting [6]), 3530 ± 723 ng·h/mL; in data set [2] (setting [7]), 2510 ng·h/mL. Besides, the half-life was 3.04 ± 1.12 h in data set [2] (female SD rats, IV single, 2.0 mg/kg, read-out: elimination half-life (T1/2) (converted)); 3.48 ± 0.835 h in data set [2] (female SD rats, single intragastric (PO) 4.0 mg/kg, read-out: elimination half-life (T1/2) (converted)); 2.52 ± 0.671 h in data set [2] (male SD rats, IV single, 2.0 mg/kg, read-out: T1/2 (converted)); 1.72 h in data set [2] (male SD rats, single intragastric (PO) 4.0 mg/kg, read-out: elimination half-life (T1/2) (converted)). For the same molecule, the clearance stood at 6.41 ± 0.656 mL/min/kg in data set [2] (setting [4]) and 9.76 ± 2.29 mL/min/kg in data set [2] (setting [6]). Moreover, the Vd in data set [2] (setting [4]) is 1.55 ± 0.408 L/kg; in data set [2] (setting [6]), 1.65 ± 0.44 L/kg. Moreover, the results for the bioavailability in data set [2] (female SD rats) and in data set [2] (male SD rats) were 86% and 35.6%, respectively. In addition, the Cmax in data set [2] (setting [5]) worked out at 2110 ± 1350 ng/mL; in data set [2] (setting [7]), 1130 ± 483 ng/mL. Also, the Tmax in data set [2] (setting [5]) was 0.667 ± 0.289 h; in data set [2] (setting [7]), 0.417 ± 0.144 h.
For `CC(C)(Sc1nnc(Br)n1-c1sc(C2CC2)c2c1CCC(F)(F)C2)C(=O)O` [crystal form A], the “Solubility (4 hrs)” value in data set [3] (0.01N HCl), in data set [3] (0.1N HCl) and in data set [3] (pH 3.8 buffer solution) was “<LOQ” each time. The “Solubility (24 hrs)” value in data set [3] (0.01N HCl), in data set [3] (0.1N HCl) and in data set [3] (pH 3.8 buffer solution) was “<LOQ” each time. The solubility at 4 h in data set [3] (setting [8]) turned out to be 1 µg/mL (≈ 2.09 µM); in data set [3] (setting [9]), 66 µg/mL (≈ 138 µM); in data set [3] (setting [10]) it was 214 µg/mL (≈ 447 µM); in data set [3] (setting [11]), 1960 µg/mL (≈ 4100 µM); in data set [3] (setting [12]) it was 3820 µg/mL (≈ 7990 µM); in data set [3] (Purified water) it was 45 µg/mL (≈ 94.1 µM). The solubility at 24 h worked out at 1 µg/mL (≈ 2.09 µM) in data set [3] (setting [8]); 66 µg/mL (≈ 138 µM) in data set [3] (setting [9]); 204 µg/mL (≈ 426 µM) in data set [3] (setting [10]); 1840 µg/mL (≈ 3850 µM) in data set [3] (setting [11]); 4050 µg/mL (≈ 8460 µM) in data set [3] (setting [12]); 58 µg/mL (≈ 121 µM) in data set [3] (Purified water). Also, the “Solubility in high pH buffer (conclusion)” value in data set [3] (high pH buffer) is listed as “good solubility”.
